This is an account of results in ChEMBL document CHEMBL3882724 (2013).

pIC50: −log10 of the molar value.

A short description of data set [1]: Half life in rat liver microsomes at 1 uM by LC-MS/MS analysis. Background: Liver microsomes are vesicles of endoplasmic reticulum, rich in cytochrome P450 enzymes.
Data set [2] addresses T1, Steroid 17-alpha-hydroxylase/17,20 lyase (Homo sapiens, UniProt P05093).
T1 sequence (P05093 whole entry): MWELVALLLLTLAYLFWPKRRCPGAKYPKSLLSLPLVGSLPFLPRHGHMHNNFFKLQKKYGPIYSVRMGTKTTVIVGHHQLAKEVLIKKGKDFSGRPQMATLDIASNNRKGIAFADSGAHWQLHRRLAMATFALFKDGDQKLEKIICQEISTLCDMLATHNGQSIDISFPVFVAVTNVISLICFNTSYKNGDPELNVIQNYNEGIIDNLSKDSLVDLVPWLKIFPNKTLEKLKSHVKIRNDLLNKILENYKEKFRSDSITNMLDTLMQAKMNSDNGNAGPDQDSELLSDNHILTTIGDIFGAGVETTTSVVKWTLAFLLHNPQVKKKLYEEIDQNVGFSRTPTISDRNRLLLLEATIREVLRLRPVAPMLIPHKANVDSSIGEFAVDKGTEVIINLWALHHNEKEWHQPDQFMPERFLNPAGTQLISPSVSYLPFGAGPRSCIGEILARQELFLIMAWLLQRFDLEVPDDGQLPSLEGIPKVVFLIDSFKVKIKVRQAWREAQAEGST
The experiment in a line: Inhibition of CYP17 in human testicular microsomes using 17alpha-hydroxypregnenolone as substrate assessed as decrease in DHEA levels at 10 nM after 90 mins by ELISA relative to control. Further details: species or system Testis. The following applies: 1.5 h. In general terms: In an ELISA, binding on a coated surface is turned into a signal by an enzyme label.

A short description of data set [3]: Half life in human liver microsomes at 1 uM by LC-MS/MS analysis.
Data set [4] has as its target T1, Steroid 17-alpha-hydroxylase/17,20 lyase. The data set is described as follows: Inhibition of CYP17 in human testicular microsomes using 17alpha-hydroxypregnenolone as substrate assessed as decrease in DHEA levels after 90 mins by ELISA. Further details: species or system Testis.
For data set [5], the target named is T2, CYP21 (steroid 21-hydroxylase) (Homo sapiens, UniProt P08686).
T2 sequence (P08686 whole entry): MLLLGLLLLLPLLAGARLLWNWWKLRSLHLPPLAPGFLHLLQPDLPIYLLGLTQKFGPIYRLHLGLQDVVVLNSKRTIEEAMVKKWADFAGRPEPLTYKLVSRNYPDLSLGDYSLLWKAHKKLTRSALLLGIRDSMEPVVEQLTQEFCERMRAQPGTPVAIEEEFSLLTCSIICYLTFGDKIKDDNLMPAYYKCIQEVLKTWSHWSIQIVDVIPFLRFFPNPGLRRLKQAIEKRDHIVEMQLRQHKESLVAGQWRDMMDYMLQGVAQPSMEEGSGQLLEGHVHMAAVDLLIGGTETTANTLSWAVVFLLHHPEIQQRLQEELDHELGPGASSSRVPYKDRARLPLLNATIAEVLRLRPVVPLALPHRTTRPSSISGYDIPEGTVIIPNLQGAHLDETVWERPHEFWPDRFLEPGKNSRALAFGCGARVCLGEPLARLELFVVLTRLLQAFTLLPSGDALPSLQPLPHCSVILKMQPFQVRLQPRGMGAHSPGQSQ
The experiment in a line: Inhibition of human CYP21 transfected in HEK293 cells assessed as decrease in conversion of progesterone to 11-deoxycorticosterone preincubated for 5 hrs followed by progesterone addition measured after 20 hrs by ELISA. The class given is cell-based. Also on record: concentration or dose not given beside the values. The following applies: HEK293 cells transfected with human CYP21, probe progesterone.

For the molecule `CCCOc1cncc(C2=CC[C@H]3[C@@H]4CCN5CCCCC[C@]5(C)[C@H]4CC[C@]23C)c1`, the half-life at 1 µM in data set [1] and in data set [3] was 10 to 60 min throughout. Also, the inhibition at 0.01 µM in data set [2] lay in the range of 50 to 80%.
For `C[C@]12CCC(=O)CCC1=CC[C@@H]1[C@@H]2CC[C@]2(C)C(n3ccnc3)=CC[C@@H]12`, the pIC50 in data set [4] was not below 7.96. Moreover, the inhibition at 0.01 µM in data set [2] is not below 80%. Moreover, the half-life at 1 µM in data set [3] lay in the range of 1 to 50 min.
Turning to `Cc1cncc(C2=CC[C@H]3[C@@H]4CC[C@H]5COC(=O)CC[C@]5(C)[C@H]4CC[C@]23C)c1`, the half-life at 1 µM in data set [1] and in data set [3] was 1 to 10 min throughout. In addition, the inhibition at 0.01 µM in data set [2] was 1 to 50%.
Turning to `C[C@]12CCCCC1C(O)C[C@@H]1[C@@H]2CC[C@]2(C)C(n3ccnc3)=CC[C@@H]12` (some centres not stated), the pIC50 in data set [4] was not below 7.96. In addition, the inhibition at 0.01 µM in data set [2] is 50 to 80%. Also, in data set [3], the half-life at 1 µM fell in the range of 1 to 50 min.
As for `CN1CC=C2CC[C@@H]3[C@H](CC[C@]4(C)C(c5cccnc5)=CC[C@@H]34)[C@@]2(C)CC1`, the pIC50 in data set [4] was not below 7.96. In addition, the inhibition at 0.01 µM in data set [2] is 1 to 50%.
In the case of `C[C@]12CCNC(=O)C=C1CC[C@@H]1[C@@H]2CC[C@]2(C)C(n3ncnn3)=CC[C@@H]12`, the half-life at 1 µM in data set [1] and in data set [3] was 1 to 10 min in each case. Moreover, in data set [2], the inhibition at 0.01 µM was not below 80%.
For the molecule `C[C@]12CC[C@H]3[C@@H](CCC4=CC(=O)NCC[C@@]43C)C1=CC=C2c1cccnc1`, in data set [4], the pIC50 is not below 7.96. In data set [2], the inhibition at 0.01 µM is 50 to 80%.
On to `Cc1cncc(C2=CC[C@H]3[C@@H]4CC(=O)C5CCCC[C@]5(C)[C@H]4CC[C@]23C)c1` (some centres not stated), for which the half-life at 1 µM in data set [1] and in data set [3] was 1 to 10 min throughout. The negative logarithm of the IC50 (pIC50) in data set [4] was not below 7.96.
With `COc1cncc(C2=CC=C3[C@@H]4CC=C5C[C@@H](OC(C)=O)CC[C@]5(C)[C@H]4CC[C@]23C)c1`, in data set [4], the pIC50 is not below 7.96. Further, the inhibition at 0.01 µM in data set [2] was not below 80%.
Turning to `CCc1cncc(C2=CC[C@H]3[C@@H]4CCN5CCCCC[C@]5(C)[C@H]4CC[C@]23C)c1`, the half-life at 1 µM in data set [1] and in data set [3] was 1 to 10 min throughout. Further, the inhibition at 0.01 µM in data set [2] lay within 1 to 50%.
Regarding `Cc1cncc(C2=CC[C@H]3[C@@H]4CC(O)C5CCCC[C@]5(C)[C@H]4CC[C@]23C)c1` (some centres not stated), the half-life at 1 µM in data set [1] and in data set [3] was 1 to 10 min each time. In addition, in data set [4], the pIC50 is not below 7.96.
For the molecule `C[C@]12CC[C@H]3[C@@H](CC=C4C[C@@H](O)CC[C@@]43C)C1=CC=C2n1ccnc1`, the pIC50 in data set [4] is not below 7.96. Further, the inhibition at 0.01 µM in data set [2] was not below 80%. For the same molecule, the half-life at 1 µM in data set [3] is not below 50 min.
As for `C[C@]12CC[C@H]3[C@@H](CC[C@H]4C[C@@H](O)CC[C@@]43C)C1=CC=C2c1cccnc1`, the negative-log IC50 (pIC50) in data set [4] is not below 7.96. The inhibition at 0.01 µM in data set [2] was not below 80%. Further, the half-life at 1 µM in data set [3] was not below 50 min.
Turning to `C[C@]12CCCCC1=CC[C@@H]1[C@@H]2CC[C@]2(C)C(c3cccnc3)=CC[C@@H]12`, the half-life at 1 µM in data set [1] and in data set [3] was 1 to 10 min in each case. Further, in data set [2], the inhibition at 0.01 µM was in the range of 50 to 80%.
As to `C[C@]12CC[C@H]3[C@@H](CC[C@H]4C[C@@H](O)CC[C@@]43C)C1=CC=C2n1ccnn1`, the half-life at 1 µM in data set [1] and in data set [3] was 1 to 10 min each time.
Consider `COc1cncc(C2=CC[C@H]3[C@@H]4CC(=O)C5CCCC[C@]5(C)[C@H]4CC[C@]23C)c1` (some centres not stated), for which the half-life at 1 µM in data set [1] and in data set [3] was 1 to 10 min in each case. The pIC50 in data set [4] was not below 7.96.
For `COC1CC2[C@@H]3CC=C(n4ccnc4)[C@@]3(C)CC[C@@H]2[C@@]2(C)CCC3CC312` (single isomer, unassigned), in data set [4], the pIC50 was not below 7.96. In addition, the inhibition at 0.01 µM in data set [2] was not below 80%. The inhibition at 20 h in data set [5] lay in the range of 10 to 50%.

In general, half-life refers to the time in which the quantity being followed falls by half. The term inhibition denotes the percentage by which the read-out fell short of the control. One may read the pIC50 as −log10 of the IC50, conventionally taken in molar units.
